Reference: paper PMC8359193, “Summary of reference chemicals evaluated by the fish short‐term reproduction assay, OECD TG229, using Japanese Medaka, Oryzias latipes” (Journal of Applied Toxicology, 2021)
Counter-ions that a name gives are not always drawn.

Experiments:
[1] = system: Japanese medaka (Oryzias latipes); experiment: Fish short-term reproduction assay (FSTRA, OECD TG229), 21-day flow-through exposure; details: for Fertility rate (%) / Mortality (%) Female / Mortality (%) Male / Number of fertilized eggs / Number of total eggs / SSC Female / SSC Male / VTG (ng/mg of liver) Female / VTG (ng/mg of liver) Male: 21 days; for GSI Female / GSI Male / HSI Female / HSI Male / Length Female / Length Male / Weight Female / Weight Male: at completion of exposure
Description: The experimental studies on the FSTRA for the 16 chemicals were conducted in two laboratories in Japan, the National Institute for Environmental Studies (NIES, Lab‐1) and the Institute of Environmental Ecology, IDEA Consultants Inc. (Lab‐2), in accordance with OECD TG229 (OECD, [2012a]) (Table 1).
The NIES‐R strain of Japanese medaka (O. latipes), one of the orange‐red varieties, was used in all the 16 chemical studies. For the studies, healthy and mature male and female medakas at 16 ± 2 weeks old were selected from a single‐stock population, which were bred within the test facilities. The test fish were maintained in conditions similar to the assay for at least 7 days, and spawning status was checked during the acclimation period. On the day the chemical exposure commenced, to ensure balanced distribution of test fish between the treatment groups for the reproductive status of the fish, the replicate vessels (fish tanks), with each containing three male and female medaka, were distributed to each treatment and control group, for example, by a randomized block design based on the number of fertilized eggs laid in the last 5–7 days during the acclimation, in each assay.
The water solubility of the test chemical was also taken into consideration when deciding the highest test concentration. To set the lower concentrations, a spacing factor ranging between two and five was used. All assays included a dilution water control (DWC).
Test solutions at the selected concentrations were prepared by diluting a stock solution, which was prepared by an adequate method depending on the physicochemical properties of the test chemicals, for example, by simply mixing the test chemical in dilution water by stirring and/or sonicating for an appropriate time or by using a solid–liquid saturator. In the two laboratories, flow‐through exposure systems, in which a series of test solutions at the target concentrations can be continuously prepared and delivered to test vessels at controlled flow rates (Haselman et al., [2016]; Watanabe et al., [2017]), were used for the exposure experiments.
In the FSTRA, three mature adult males and females in a test vessel were exposed together to the test chemicals in flow‐through condition for 3 weeks. In all the assays, each treatment group, including the DWC group, contained four replicate tanks. During the exposure period, the fish were fed a sufficient amount of live brine shrimp nauplii (newly hatched Artemia sp.) for daily spawning ad libitum. Fecal material in the tanks was appropriately removed by siphoning after feeding. Water temperature of test solutions was recorded for at least one vessel in each treatment and control group every day and for all vessels at least once a week. Furthermore, dissolved oxygen and pH of test solutions were measured for all test vessels at least once a week. Mortality and abnormal behavior and appearance in the fish exposed to test chemicals were daily observed, and any fish that died were removed from the tank as soon as possible. To assess the reproductive status, all eggs females spawned were collected every day. At the completion of the chemical exposure, surviving fish in each tank were sampled.
The eggs females released on the bottom of the tank were collected by siphoning, and the egg clutches still on female abdomen were carefully picked from the body of the females captured using a small net. All the eggs collected were microscopically observed and separately counted for fertilized and unfertilized.

Japanese medaka = details: MMT; ref Flynn et al. (2017); cited from earlier work
[2] = hepatic VTG, 21-day exposure, measured conc.

SMILES: CC/C(=C(\c1ccccc1)c1ccc(OCCN(C)C)cc1)c1ccccc1 [TAM, tamoxifen citrate]
- time from initiation of treatment to drastic reduction of daily fecundity ([1]; both, NIES-R, Japanese medaka (Oryzias latipes), in vivo): ≤ 3 days
- LOEC for VTG induction in males [1, 2]: 10.0 µg/L
- LOEC for decrease of VTG in females [1, 2]: 10.0 µg/L
- LOEC on female VTG: times lower than that for RAL ([1]; in vivo): 70 times
- Fertility rate (%) ([1]; measured conc. 10.0 μg/L): 94%
- Mortality (%) Female ([1]; measured conc. 10.0 μg/L): 0%
- Mortality (%) Male ([1]; measured conc. 10.0 μg/L): 0%
- Number of fertilized eggs ([1]; measured conc. 10.0 μg/L): 12
- Number of total eggs ([1]; measured conc. 10.0 μg/L): 13 ± 1.1 /female/day
- SSC Female ([1]; measured conc. 10.0 μg/L): 0 ± 0
- SSC Male ([1]; measured conc. 10.0 μg/L): 85 ± 11
- VTG (ng/mg of liver) Female ([1]; measured conc. 10.0 μg/L): 666 ± 96 ng/mg of liver
- VTG (ng/mg of liver) Male ([1]; measured conc. 10.0 μg/L): 181 ± 30.0 ng/mg of liver
- GSI Female ([1]; measured conc. 10.0 μg/L): 7.3%
- GSI Male ([1]; measured conc. 10.0 μg/L): 0.89%
- HSI Female ([1]; measured conc. 10.0 μg/L): 3.6%
- HSI Male ([1]; measured conc. 10.0 μg/L): 2.2%
- Length Female ([1]; measured conc. 10.0 μg/L): 32.3 mm
- Length Male ([1]; measured conc. 10.0 μg/L): 33.6 mm
- Weight Female ([1]; measured conc. 10.0 μg/L): 369 mg
- Weight Male ([1]; measured conc. 10.0 μg/L): 419 mg
- Fertility rate (%) ([1]; measured conc. 83.3 μg/L): 76%
- Mortality (%) Female ([1]; measured conc. 83.3 μg/L): 8.3%
- Mortality (%) Male ([1]; measured conc. 83.3 μg/L): 0%
- Number of fertilized eggs ([1]; measured conc. 83.3 μg/L): 1.6
- Number of total eggs ([1]; measured conc. 83.3 μg/L): 2.2 ± 0.8 /female/day
- SSC Female ([1]; measured conc. 83.3 μg/L): 0 ± 0
- SSC Male ([1]; measured conc. 83.3 μg/L): 85 ± 7.0
- VTG (ng/mg of liver) Female ([1]; measured conc. 83.3 μg/L): 335 ± 138 ng/mg of liver
- VTG (ng/mg of liver) Male ([1]; measured conc. 83.3 μg/L): 319 ± 126 ng/mg of liver
- GSI Female ([1]; measured conc. 83.3 μg/L): 11.5%
- GSI Male ([1]; measured conc. 83.3 μg/L): 0.87%
- HSI Female ([1]; measured conc. 83.3 μg/L): 4.2%
- HSI Male ([1]; measured conc. 83.3 μg/L): 2.5%
- Length Female ([1]; measured conc. 83.3 μg/L): 32.9 mm
- Length Male ([1]; measured conc. 83.3 μg/L): 32.5 mm
- Weight Female ([1]; measured conc. 83.3 μg/L): 418 mg
- Weight Male ([1]; measured conc. 83.3 μg/L): 374 mg
- effect on fecundity (number of total eggs), in words ([1]; within the test concentrations, 21-day exposure): statistically significant decrease
- LOEC on female VTG (reduction) (Japanese medaka): 1.3 µg/L
